From publication PMC12656546, “Enterohepatic Recirculation-Mediated Reabsorption of Aristolochic Acid I: Revealed by Toxicokinetics and Metabolite Identification in Rats” (Toxics, 2025)
Several values for one entry are separate records, joined by “and”; a condition that tells them apart may be missing. Identical values can stand only once. Like-named read-outs stand apart in the source and are kept apart here.

Test: Toxicokinetic study of AAI after single oral administration (plasma, UPLC-QQQ-MS/MS, NCA)
Type: in vivo, F344 rats
Settings: for tmax: read-out: tmax
Protocol: For toxicokinetic study, forty-eight […] F344 rats (specific pathogen-free grade) were enrolled in the study, with equal numbers of males and females. All rats were purchased from Charles River Laboratory (Raleigh, NC, USA). All rats were confirmed to be healthy based on a series of physical health examinations. Rats were acclimated for 5 days at a temperature of 20–26 °C, humidity of 40–70% and a 12 h light/dark circle. The rats were randomly divided into four groups (n = 12 per group), with equal numbers of males and females in each group. The allocation was performed separately for each sex (female and male) based on body weight using a stratified randomization method. During the experiment, rats were fasted and had access to water ad libitum. To minimize confounding factors, treatments and measurements were randomized within each session. Cages from different groups were evenly distributed across racks in the same room to reduce bias from light and temperature. This study was approved by the Institutional Animal Care and Use Committee (IACUC) of the National Drug Safety Evaluation Center (Approval No. IACUC-2024-K011, 20 September 2024).
During the experiment, each rat received a single oral administration via gastric gavage. Rats in the control group were administered with 0.5% sodium carboxymethyl cellulose (CMC-Na) suspension. For the treatment groups, rats were administered with gavage solution containing 10, 30 and 100 mg/kg of AAI. The gavage solution was prepared by uniformly dispersing the reference standard of AAI in the 0.5% CMC-Na solution. After oral administration, blood samples were collected from the postorbital vein plex of rats and immediately placed in EDTA tubes. To capture potential reabsorption which might occur long after AAI administration, 15 blood sampling time points were established for each dose group. A sparse sampling approach was employed to avoid excessive blood loss in each rat. For each dosage, 12 rats were subdivided into two groups. For the first group, blood samples were collected from 6 rats at 10, 30, 60, 90, 120, 240, 420, and 600 min after AAI administration; for the second group, blood samples were collected from these 6 rats at 12, 14, 16, 18, 20, 22, and 24 h after AAI administration. Therefore, the experimental design ensured that six biological replicates were obtained for each sampling time point, enabling robust toxicokinetic analysis.
Rat plasma samples were prepared as follows: Blood was centrifuged at 13,200 rpm for 10 min. Then, 25 μL of retrieved plasma was transferred to 2 mL centrifuge tubes, followed by the addition of 75 μL of methanol/acetonitrile solution (v/v, 1∶1) containing indomethacin as internal standard (IS). After vortexing for 2 min and centrifugation for 10 min at 13,200 rpm, the supernatant was used as study samples for quantitative analysis. Quality control samples (QCs) and calibration standards were prepared by spiking blank plasma with different concentrations of AAI standard solution. The QCs and calibration standards were processed using identical procedures as the study samples.
A method of ultra-performance liquid chromatography coupled with triple quadrupole tandem mass spectrometry (UPLC-QQQ-MS/MS) was developed to achieve the quantitation of AAI in rat plasma. The LC-MS/MS analysis was performed using an Acquity UPLC I-Class system coupled with an Xevo TQ XS spectrometer (Waters, Milford, MA, USA). An Acquity UPLC BEH C18 column (2.1 mm × 50 mm, 1.7 μm, Waters, Milford, MA, USA) was employed for chromatographic separation. The mobile phases consisted of water containing 5 mmol/L ammonium formate/0.1% formic acid (A) and acetonitrile (B). The gradient elution was set as follows: 1–4 min, 10–90% B; 4–5 min, 90% B; 5–5.01 min, 90–10% B; 5.01–7 min, 10% B. The flow rate was set at 0.4 mL/min. The column temperature was maintained at 40 °C. A sample volume of 2 μL was injected for analysis. […]

[1] = 10 mg/kg single oral, rat plasma, mean ± SD
[2] = 30 mg/kg single oral, rat plasma, mean ± SD
[3] = 100 mg/kg single oral, rat plasma, mean ± SD
[4] = both sexes, F344, rat, plasma, po, 10 mg/kg, 10 mg/kg single oral, rat plasma, mean ± SD
[5] = both sexes, F344, rat, plasma, po, 30 mg/kg, 30 mg/kg single oral, rat plasma, mean ± SD
[6] = both sexes, F344, rat, plasma, po, 30 mg/kg, medium-dose (30 mg/kg), individual pooled profiles (animal pairs), Table S4
[7] = both sexes, F344, rat, plasma, po, 100 mg/kg, 100 mg/kg single oral, rat plasma, mean ± SD
[8] = high-dose (100 mg/kg), individual pooled profiles (animal pairs), Table S4, 100 mg/kg

## COc1cccc2c1cc([N+](=O)[O-])c1c(C(=O)O)cc3c(c12)OCO3 [AAI, Aristolochic acid I]
[1]
  CL/F: 1.66 ± 0.37 L/h
  Vd: 3.36 ± 1.97 L
[2]
  CL/F: 1.22 ± 0.30 L/h
  Vd: 4.67 ± 0.81 L
[3]
  CL/F: 1.13 ± 0.59 L/h
  Vd: 8.42 ± 7.24 L
F344, rat, plasma, po, 10 mg/kg, low-dose (10 mg/kg), individual pooled profiles (animal pairs), Table S4
  AUC(0-t): 843 ng·h/mL
F344, rat, plasma, po, 10 mg/kg, low-dose (10 mg/kg), individual pooled profiles (animal pairs), Table S4, read-out: Cmax
  Cmax: 562 ng/mL
[4]
  AUC(0-t): 969 ± 140 ng·h/mL
  half-life: 78.6 ± 30.6 min
  tmax: 41.4 ± 36 min
Both sexes, F344, rat, plasma, po, 10 mg/kg, 10 mg/kg single oral, rat plasma, mean ± SD, read-out: Cmax
  Cmax: 457 ± 129 ng/mL
Both sexes, F344, rat, plasma, po, 10 mg/kg, low-dose (10 mg/kg oral), 14 h, individual rats M104,M105,M106,F104,F105,F106, below LLOQ set to zero
  concentration at 14 h: 0 ng/mL
Both sexes, F344, rat, plasma, po, 10 mg/kg, low-dose (10 mg/kg oral), 16 h, individual rats M104,M105,M106,F104,F105,F106, below LLOQ set to zero
  concentration at 16 h: 0 ng/mL
Both sexes, F344, rat, plasma, po, 10 mg/kg, low-dose (10 mg/kg oral), 18 h, individual rats M104,M105,M106,F104,F105,F106, below LLOQ set to zero
  concentration at 18 h: 0 ng/mL
Both sexes, F344, rat, plasma, po, 10 mg/kg, low-dose (10 mg/kg oral), 20 h, individual rats M104,M105,M106,F104,F105,F106, below LLOQ set to zero
  concentration at 20 h: 0 ng/mL
Both sexes, F344, rat, plasma, po, 10 mg/kg, low-dose (10 mg/kg oral), 22 h, individual rats M104,M105,M106,F104,F105,F106, below LLOQ set to zero
  concentration at 22 h: 0 ng/mL
Both sexes, F344, rat, plasma, po, 10 mg/kg, low-dose (10 mg/kg oral), 24 h, individual rats M104,M105,M106,F104,F105,F106, below LLOQ set to zero
  concentration at 24 h: 0 ng/mL
Both sexes, F344, rat, plasma, po, 10 mg/kg, low-dose (10 mg/kg), individual pooled profiles (animal pairs), Table S4
  AUC(0-t): 825 ng·h/mL
[5]
  AUC(0-t): 3950 ± 543 ng·h/mL
  half-life: 167 ± 44.4 min
  tmax: 34.8 ± 10.2 min
Both sexes, F344, rat, plasma, po, 30 mg/kg, 30 mg/kg single oral, rat plasma, mean ± SD, read-out: Cmax
  Cmax: 2450 ± 561 ng/mL
Both sexes, F344, rat, plasma, po, 30 mg/kg, medium-dose (30 mg/kg oral), 1.5 h, individual rats M201,M202,M203,F201,F202,F203
  concentration at 1.5 h: 413 ng/mL
[6]
  AUC(0-t): 3450 ng·h/mL
  tmax: 30 min
[7]
  AUC(0-t): 17100 ng·h/mL
  half-life: 181 ± 27 min
  tmax: 70.2 ± 22.2 min
Both sexes, F344, rat, plasma, po, 100 mg/kg, 100 mg/kg single oral, rat plasma, mean ± SD, read-out: Cmax
  Cmax: 9110 ± 2180 ng/mL
Both sexes, F344, rat, plasma, po, 100 mg/kg, high-dose (100 mg/kg), individual pooled profiles (animal pairs), Table S4, read-out: Cmax
  Cmax: 9010 ng/mL
Both sexes, F344, rat, plasma, po, 100 mg/kg, high-dose (100 mg/kg), individual pooled profiles (animal pairs), Table S4
  tmax: 120 min
high- and medium-dose groups (100, 30 mg/kg oral)
  secondary elevation of plasma AAI concentration, time post-administration: 14 to 24 h
[8]
  AUC0→t: 17484.11 ng·h/mL and 17260.39 ng·h/mL and 32135.80 ng·h/mL and 9262.46 ng·h/mL and 9698.81 ng·h/mL and 16821.21 ng·h/mL
  CL/F: 0.76 L/h and 0.74 L/h and 0.40 L/h and 2.04 L/h and 1.79 L/h and 1.07 L/h
  Cmax: 9980.23 ng/mL and 12351.60 ng/mL and 6490.96 ng/mL and 6245.89 ng/mL and 10563.14 ng/mL
